# Data: patent US11350634B2, “Method for preparing biopesticide preparation for preventing and controlling Solenopsis invicta” (GUANGDONG INSTITUTE OF APPLIED […], priority 2017, dated 2022)
# What was measured:
# [1] = tested on: Solenopsis invicta worker ants; experiment: Laboratory virulence test of the combination of Beauveria bassiana and sodium chloride (Embodiment 1 method); format: in vivo; conditions: for synergism / effect on the pesticidal effect of Beauveria bassiana: salt added to Beauveria bassiana solution instead of sodium chloride, Embodiment 1 test
# Experimental: In the laboratory virulence test, 5 g of Beauveria bassiana powder formulation was dissolved in 1 L of water and mixed well to give a Beauveria bassiana solution. The used Beauveria bassiana powder formulation contained 20 billion/g of Beauveria bassiana spores. 9 Beauveria bassiana solutions, 100 mL each, were taken from the IL Beauveria bassiana solution, and respectively added with NaCl so that NaCl concentrations in the 9 Beauveria bassiana solutions were: 0 mmol/L, 25 mmol/L, 75 mmol/L, 100 mmol/L, 125 mmol/L, 150 mmol/L, 200 mmol/L, 250 mmol/L, and 300 mmol/L, and thereby Beauveria bassiana/sodium chloride aqueous dispersions were obtained, wherein the Beauveria bassiana spores were present in a concentration of 1×10^8/mL.
# The Beauveria bassiana solution, the Beauveria bassiana/sodium chloride aqueous solution, a sodium chloride solution (125 mmol/L), and sterile water were respectively tested for virulence against healthy Solenopsis invicta worker ants, with 3 replicates for each treatment, 1 petri dish in each replicate, and 100 Solenopsis invicta worker ants in each petri dish. […] Data statistical analysis was performed using SPSS 13.0 software, significance testing between samples was performed using the Duncan's method, wherein different lowercase letters indicate a significant difference (P<0.05) in cumulative mortality of the treated Solenopsis invicta.
# [2] = tested on: Solenopsis invicta worker ants; experiment: Laboratory virulence test of the Beauveria bassiana/sodium chloride aqueous dispersion of water dispersible granule formulation (with adjuvants); format: in vivo; conditions: worker ants dipped about 5 seconds, 96 hours after treatment, 1×10^8/mL spores, NaCl alone 125 mmol/L, FIG. 2
# From the text: A totally 30 g of Beauveria bassiana powder formulation and sodium chloride (wherein a mass ratio of the Beauveria bassiana powder formulation to sodium chloride included 5:1.46, 5:4.38; 5:5.84, 5:7.30, 5:8.77, 5:11.69, 5:14.61 g, and 5:17.53, and the Beauveria bassiana powder formulation contained 20 billion Beauveria bassiana spores per gram), 8 g of wetting agent butylnaphtalenesulfonic acid sodium salt, 18 g of dispersant sodium lignosulfonate, 5 g of disintegrant calcium chloride, 2 g of stabilizer disodium hydrogen phosphate, 5 g of binder sodium polyacrylate, and 32 g of carrier diatomite, were weighed out and mixed according to a method for preparing a water dispersible granule formulation (1. The raw materials were mixed evenly according to the formula. 2. The materials were ground using a sand mill after mixed evenly, and subjected to spray granulation after determined to be acceptable. 3. The products were screened using a vibrating screen after the spray granulation, products with unacceptable appearance were returned to the sand mill to be ground again, and products with acceptable appearance were further subjected to quality inspection wherein products with unacceptable quality were also returned to the sand mill to be ground again. 4. Products with acceptable quality were packaged. 5. […]
smiles,measurement,setting,value
"[Cl-].[Na+] [NaCl, sodium chloride]",96 h cumulative mortality / pesticidal effect,"[1]; worker ants dipped about 5 seconds, 96 hours after treatment, 1×10^8/mL spores, NaCl alone 125 mmol/L, no adjuvants, FIG. 1",no killing effect
same,96 h cumulative mortality / pesticidal effect,[2],no killing effect
[Ca+2].[Cl-].[Cl-] [calcium chloride],synergism / effect on the pesticidal effect of Beauveria bassiana,[1],no significant difference
[Cl][Fe]([Cl])[Cl] [ferric chloride],synergism / effect on the pesticidal effect of Beauveria bassiana,[1],no significant difference
[Cl-].[Cl-].[Mg+2] [magnesium chloride],synergism / effect on the pesticidal effect of Beauveria bassiana,[1],no significant difference
[Cl-].[K+] [potassium chloride],synergism / effect on the pesticidal effect of Beauveria bassiana,[1],no significant difference
